Results from publication PMC5225183, “Fingerprinting of neurotoxic compounds using a mouse embryonic stem cell dual luminescence reporter assay” (Archives of Toxicology, 2016).
Like-named read-outs stand apart in the source and are kept apart here.

Columns and labels:
[1] = test system: neuronal precursor cells derived from human embryonic stem cells; parameters: method as in Waldmann et al. [2014]; conditions: ref Waldmann et al. [2014]; cited from earlier work
[2] = parameters: method as in Australian Therapeutic Goods Administration [2014]; conditions: rats, toxic dose level 10 mg/kg/day; ref Australian Therapeutic Goods Administration [2014]; cited from earlier work
[3] = cited from earlier work
[4] = PBPK reverse modeling of nominal equivalent concentration (NEC), human data
Method: To evaluate the human relevance of in vitro concentrations found to be toxic in this study, an in vitro–in vivo comparison of the toxicity data was performed using a physiology-based pharmacokinetic (PBPK) reverse modeling approach. […] The lipid content and albumin concentrations of the test media N2 and BHK medium were calculated on the basis of the available information provided by the suppliers (Fig. S2A). The data on rat plasma have been adopted from (Verwei et al. [2006]). The original references are (Barber et al. [1990]) for albumin and (DeJongh et al. [1997]) for lipids. Human plasma values were taken from (Gulden and Seibert [2003]). The original data on albumin are from (Lindup [1987]) and for lipids from (Patterson et al. [1988]). Total protein concentrations were calculated based on the assumption that the protein molar mass is similar to the one of albumin (66 kDa). Albumin was assumed to represent 60 and 48 % of the total serum proteins (mg/ml) in human and rat (Baker et al. [1979]; Busher [1990]) (Fig. S2A).
(a) Developmental toxicity (DT)—inducing concentrations were extrapolated from the in vivo study reported in the document by the Australian Therapeutic Goods Administration (Australian Therapeutic Goods Administration [2014]). In an embryo-fetal developmental toxicity study in rats, abiraterone acetate induced developmental toxicity when administered at oral doses of 10, 30 or 100 mg/kg/day throughout the period of organogenesis (gestational days 6–17). Findings include embryo-fetal lethality (increased postimplantation loss and decreased number of living fetuses), fetal developmental delay (skeletal effects), and urogenital effects (bilateral ureter dilation) at doses ≥10 mg/kg/day (Australian Therapeutic Goods Administration [2014]). (b) Toxicokinetic parameters of abiraterone in rats were extracted from the available report from the TGA (Australian Therapeutic Goods Administration [2014]). […] The average concentration (Cavg) was calculated from the ratio of AUC and the dose interval (τ) of 24 h. The percentage of plasma protein binding of the drug was reported as being 99.8 %, without relevant species differences occurring (US FDA [2011]). (c) The nominal in vitro concentrations equivalent to the concentration used in vivo were calculated using the value of total protein concentration instead of albumin concentration.
Clinical signs included malrotated forepaws/hindpaws, discoloration of the body surface, impaired coat growth, eye opacity, and eye discharge with absence of pupillary reflex were observed (US FDA [2012]). […] The Cavg was calculated as the ratio of AUC and the dose interval (τ) of 24 h. TF is reported to be extensively bound in plasma, probably mostly to albumin, with an average bound fraction of 99.46 % (Russo et al. [2013]). (c) The nominal in vitro concentrations equivalent to the concentration used in vivo in rats and humans (Cmax and Cavg) were determined assuming only binding to the specific drug-binding proteins (albumin and/or α1-acid glycoprotein) (Fig. S2D).
To compare the effective/toxic concentrations found in our study with relevant in vivo concentrations, we used a reverse pharmacokinetic modeling approach for three exemplary compounds: teriflunomide, geldanamycin, and abiraterone. Firstly, we used a literature data mining approach to identify toxic or clinically relevant plasma concentrations reported in published animal studies (in relation to developmental toxicity or neurotoxicity) or clinical measurements (mostly in relation to drug efficacy). Then those values were used as points-of-departure to calculate the nominal equivalent concentrations (NEC) in both cell culture media used in our study, the BHK and N2 medium. These two media (used to expose the ESCs and the ESC-derived neurons) contained different amounts of protein and lipid and therefore required separate calculations of the NEC. […]

[5] = Toxicokinetics in rats; format: in vivo; conditions: rat, plasma
[6] = test system: Thy1-GFP transgenic rats; parameters: method as in Sun et al. [2012]; conditions: ref Sun et al. [2012]; cited from earlier work
[7] = cited from earlier work; remark: listed apart in the source
[8] = test system: plasma protein; assay: Plasma protein binding (plasma bound fraction); format: in vitro ADME; conditions: assumed, no specific indications found
Method: The lipid content and albumin concentrations of the test media N2 and BHK medium were calculated on the basis of the available information provided by the suppliers (Fig. S2A). The data on rat plasma have been adopted from (Verwei et al. [2006]). The original references are (Barber et al. [1990]) for albumin and (DeJongh et al. [1997]) for lipids. Human plasma values were taken from (Gulden and Seibert [2003]). The original data on albumin are from (Lindup [1987]) and for lipids from (Patterson et al. [1988]). Total protein concentrations were calculated based on the assumption that the protein molar mass is similar to the one of albumin (66 kDa). […]
(a) Developmental toxicity (DT)—inducing concentrations were extrapolated from the in vivo study reported in the document by the Australian Therapeutic Goods Administration (Australian Therapeutic Goods Administration [2014]). […] (c) The nominal in vitro concentrations equivalent to the concentration used in vivo were calculated using the value of total protein concentration instead of albumin concentration. […]
(c) The nominal in vitro concentrations equivalent to the concentration used in vivo in rats and humans (Cmax and Cavg) were determined assuming only binding to the specific drug-binding proteins (albumin and/or α1-acid glycoprotein) (Fig. S2D).

[9] = test system: mice; parameters: method as in https://www.spectrumchemical.com/MSDS/TCI-G0334.pdf; conditions: ref https://www.spectrumchemical.com/MSDS/TCI-G0334.pdf; cited from earlier work
[10] = Sprague Dawley, oral, rats, 0.3 mg/kg, estimated proportional to reported kinetics at 1 mg/kg (US FDA [2012])

CCCC(CCC)C(=O)O [Valproic acid]
range of tolerance [1]: up to 25 μM

C[C@]12CC[C@H](O)CC1=CC[C@@H]1[C@@H]2CC[C@]2(C)C(c3cccnc3)=CC[C@@H]12 [Abiraterone]
AUC [2]: 0.034 µg·h/mL | Cmax [2]: 10.8 ng/mL | AUC at steady state ([3]; humans, daily oral dose of 1000 mg as abiraterone acetate, ref Goldberg and Berrios-Colon [2013]): 1.173 µg·h/mL | Cmax ([3]; humans, daily oral dose of 1000 mg/kg as abiraterone acetate, ref Goldberg and Berrios-Colon [2013]): 226 ng/mL | Free concentration in vivo ([4]; Cavg): 0.353 pM | Total concentration in vivo (ECpl) ([4]; Cavg): 0.14 µM | Free concentration in vivo ([4]; Cmax): 1.63 pM | Total concentration in vivo (ECpl) ([4]; Cmax): 0.647 µM

C/C(O)=C(\C#N)C(=O)Nc1ccc(C(F)(F)F)cc1 [Teriflunomide]
24 h AUC at steady state ([3]; healthy individuals, daily oral dose of 14 mg, ref Australian Therapeutic Goods Administration [2013]): 1070 µg·h/mL | AUC [5, 10]: ~33 µg·h/mL | Cmax [5, 10]: ~3000 ng/mL | Free concentration in vivo ([4]; Cavg): 280000 pM | Total concentration in vivo (ECpl) ([4]; Cavg): 165 µM

COC1=C2C[C@@H](C)C[C@H](OC)[C@H](O)[C@@H](C)/C=C(\C)[C@H](OC(N)=O)[C@@H](OC)/C=C\C=C(/C)C(=O)NC(=CC1=O)C2=O [Geldanamycin]
dose affecting nerve recovery / neurodifferentiation [6]: 0.2 mg/kg/day | aqueous solubility [7]: poor | fb,pl (plasma bound fraction) [8]: 99% | LD50 [9]: 1 mg/kg | Cmax ([5]; Thy1-GFP transgenic, dose of 0.2 mg/kg, calculated from mouse volume of distribution): 1250 ng/mL
